Experimental findings from patent US20110172147A1, “NEUROPEPTIDE-2 RECEPTOR (Y-2R) AGONISTS” (priority 2009, published 2011) are described below.

Assay type in all cases: cell-based
In test [1] the target is T1, Y1R (Homo sapiens, UniProt P25929).
T1 sequence (P25929 1-384): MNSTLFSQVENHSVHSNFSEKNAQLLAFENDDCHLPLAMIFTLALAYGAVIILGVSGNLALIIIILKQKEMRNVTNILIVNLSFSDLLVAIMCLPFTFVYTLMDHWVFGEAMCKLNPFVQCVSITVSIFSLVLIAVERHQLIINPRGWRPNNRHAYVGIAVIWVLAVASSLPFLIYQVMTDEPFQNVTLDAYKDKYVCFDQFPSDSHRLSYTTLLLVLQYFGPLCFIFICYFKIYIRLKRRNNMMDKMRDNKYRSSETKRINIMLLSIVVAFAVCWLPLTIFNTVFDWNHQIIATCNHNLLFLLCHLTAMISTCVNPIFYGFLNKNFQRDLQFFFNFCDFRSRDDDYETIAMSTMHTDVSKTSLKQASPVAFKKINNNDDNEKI
Description: CaFlux Assay (FLIPR), Y1R.

Test [2] concerns the target Y4R (Homo sapiens, UniProt P50391). The test can be described thus: CaFlux Assay (FLIPR), Y4R.
The target in test [3] is T2, Y5R (Homo sapiens, UniProt Q15761).
T2 sequence (Q15761 1-445): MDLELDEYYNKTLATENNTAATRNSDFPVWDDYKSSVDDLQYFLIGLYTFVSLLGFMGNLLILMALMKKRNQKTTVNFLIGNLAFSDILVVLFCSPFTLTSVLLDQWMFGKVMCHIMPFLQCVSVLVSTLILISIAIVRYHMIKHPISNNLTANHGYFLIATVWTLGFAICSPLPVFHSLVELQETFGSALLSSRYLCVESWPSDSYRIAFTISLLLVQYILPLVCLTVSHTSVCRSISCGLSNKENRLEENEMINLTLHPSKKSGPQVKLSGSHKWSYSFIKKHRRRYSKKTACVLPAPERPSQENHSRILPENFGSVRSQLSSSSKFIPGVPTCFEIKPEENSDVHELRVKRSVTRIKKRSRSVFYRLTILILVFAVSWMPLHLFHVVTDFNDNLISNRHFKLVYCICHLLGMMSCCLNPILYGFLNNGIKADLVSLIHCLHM
The test can be described thus: CaFlux Assay (FLIPR), Y5R.

The target in test [4] is T3, hNPY2R (Homo sapiens, UniProt P49146).
T3 sequence (P49146 1-381): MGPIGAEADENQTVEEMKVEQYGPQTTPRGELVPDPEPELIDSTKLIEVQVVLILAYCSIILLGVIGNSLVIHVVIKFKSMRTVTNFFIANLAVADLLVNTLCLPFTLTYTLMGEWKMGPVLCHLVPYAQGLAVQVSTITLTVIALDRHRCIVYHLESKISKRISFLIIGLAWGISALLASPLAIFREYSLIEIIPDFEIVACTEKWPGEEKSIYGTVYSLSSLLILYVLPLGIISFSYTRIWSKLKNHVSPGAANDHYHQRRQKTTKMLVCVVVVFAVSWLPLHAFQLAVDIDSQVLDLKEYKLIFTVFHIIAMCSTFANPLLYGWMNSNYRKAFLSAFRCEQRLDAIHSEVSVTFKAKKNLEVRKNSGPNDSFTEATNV
Description: cAMP Agonist Assay, HEK293/hNPY2R. On the set-up: expressed in transfected cells; host or cells: HEK293/hNPY2R (G418 selection). The method, then:
In this example, the following materials were used: 384-well plate; Tropix cAMP-Screen Kit; cAMP ELISA System (Applied Biosystems, cat. #T1505; CS 20000); Forskolin (Calbiochem cat. # 344270); cells: HEK293/hNPY2R; growth medium: Dulbecco's modified eagle medium (D-MEM, Gibco); 10% Fetal bovine serum (FBS, Gibco), heat-inactivated; 1% Penicillin/Streptomycin (Pen 10000 unit/mL: Strep […], Gibco); […] G418 (Geneticin, Gibco cat. # 11811-031); and plating medium: DMEM/F12 w/o phenol red (Gibco); 10% FBS (Gibco, cat. # 10082-147), heat-inactivated; 1% Penicillin/Streptomycin (Gibco, cat. # 15140-122); […] G418 (Geneticin, Gibco, cat. # 11811-031).
On the first day, medium was discarded, and the monolayer cells were washed with 10 mL PBS per flask (T225). After decanting with PBS, 5 mL VERSENE (Gibco, cat #1504006) was used to dislodge the cells (5 min @37 C). The flask was gently tapped and the cell suspension was pooled. Each flask was rinsed with 10 mL plating medium and centrifuged at 1000 rpm for 5 min. The suspension was pooled and counted. The suspension was resuspended in plating medium at a density of 2.0×10^5 cells/mL for HEK293/hNPY2R. 50 microliters of cells (HEK293/hNPY2R-10,000 cells/well) were transferred into the 384-well plate using Multi-drop dispenser. The plates were incubated at 37° C. overnight. On the second day, the cells were checked for 75-85% confluence. The media and reagents were allowed to come to room temperature. Before the dilutions were prepared, the stock solution of stimulating compound in dimethyl sulphoxide (DMSO, Sigma, cat #D2650) was allowed to warm up to 32 C for 5-10 min. The dilutions were prepared in DMEM/F12 with 0.5 mM 3-Isobutyl-1-methylxanthine (IBMX, Calbiochem, cat #410957) and 0.5 mg/mL BSA. The final DMSO concentration in the stimulation medium was 1.1% with Forskolin concentration of 5 μM. The cell medium was tapped off with a gentle inversion of the cell plate on a paper towel. 50 μL of stimulation medium was placed per well (each concentration done in four replicates). The plates were incubated at room temperature for 30 min, and the cells were checked under a microscope for toxicity. After 30 minutes of treatment, the stimulation media was discarded and […] of Assay Lysis Buffer (provided in the Tropix kit) was added. The plates were incubated for 45 min @ 37° C. 20 μL of the lysate was transferred from stimulation plates into the pre-coated antibody plates (384-well) from the Tropix kit. 10 μL of AP conjugate and 20 μL of anti-cAMP antibody was added. The plates were incubated at room temperature while shaking for 1 hour. The plates were then washed 5 times with Wash Buffer, 70 μL per well for each wash. The plates were tapped to dry. 30 μL/well of CSPD/Saphire-II RTU substrate/enhancer solution was added and incubated for 45 min @ RT (shake). Signal for 1 sec/well in a Luminometer. (VICTOR-V) was measured.

For test [5], the target named is T3, hNPY2R. The test can be described thus: CaFlux Assay (FLIPR), Y2R. On the set-up: expressed in transfected cells; host or cells: HEK-293 stably transfected with G protein chimera Gαqi9. The method, then: HEK-293 cells were stably transfected with the G protein chimera Gαqi9 and the hygromycin-B resistance gene were further transfected with the human NPY2 receptor and G418 antibiotic selection. Following selection in both hygromycin-B and G418, individual clones were assayed for their response to PYY. The transfected cells were cultured in DMEM medium supplemented with 10% fetal bovine serum, 50 μg/mL hygromycin-B, 2 mM glutamine, 100 U/mL penicillin, 100 μg/mL streptomycin and 250 μg/mL G418. Cells are harvested with trypsin-EDTA and counted using ViaCount reagent. The cell suspension volume is adjusted to 4.8×10^5 cells/mL with complete growth media. Aliquots of 25 μL are dispensed into 384 well Poly-D Lysine coated black/clear microplates (Falcon) and the microplates were placed in a 37° C. CO2 incubator overnight. Loading Buffer (Calcium-3 Assay Kit, Molecular Devices) was prepared by dissolving the contents of one vial (Express Kit) into […] Hank's Balanced Salt Solution containing 20 mM HEPES and 5 mM probenecid. Aliquots of 25 μL of diluted dye were dispensed into the cell plates and the plates are then incubated for 1 hour at 37° C. During the incubation, test compounds were prepared at 3.5× the desired concentration in HBSS (20 mM HEPES)/0.05% BSA/1% DMSO and transferred to a 384-well plate for use on FLIPR. After incubation, both the cell and compound plates were brought to the FLIPR and 20 μL of the diluted compounds were transferred to the cell plates by the FLIPR. During the assay, fluorescence readings were taken simultaneously from all 384 wells of the cell plate every 1.5 seconds. Five readings were taken to establish a stable baseline, and then 20 μL of sample was rapidly (30 μL/sec) and simultaneously added to each well of the cell plate. The fluorescence was continuously monitored before, during and after sample addition for a total elapsed time of 100 seconds. Responses (increase in peak fluorescence) in each well following addition were determined. The initial fluorescence reading from each well, prior to ligand stimulation, was used as a zero baseline value for the data from that well. The responses are expressed as % of maximal response of the positive control.

Chain of Y4R (P50391 whole entry): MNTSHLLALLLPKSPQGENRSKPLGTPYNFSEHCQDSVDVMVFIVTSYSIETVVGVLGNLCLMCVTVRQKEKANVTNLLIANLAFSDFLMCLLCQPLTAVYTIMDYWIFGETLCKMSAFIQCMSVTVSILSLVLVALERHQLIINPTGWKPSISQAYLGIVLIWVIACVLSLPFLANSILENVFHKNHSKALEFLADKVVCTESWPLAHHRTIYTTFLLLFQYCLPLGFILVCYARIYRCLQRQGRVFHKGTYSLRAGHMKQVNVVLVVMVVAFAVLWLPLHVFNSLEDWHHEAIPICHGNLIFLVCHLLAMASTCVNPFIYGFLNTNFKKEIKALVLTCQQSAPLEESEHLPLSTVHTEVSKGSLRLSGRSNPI

One may read the EC50 as the concentration needed to bring the measured effect to its halfway point. On to `CCCCCCCCCCCCCCCC(=O)NCCCCCC(=O)NCCCC[C@H](NC(=O)[C@@H](NC(=O)COCCOCCOCCOCCOCCOC)[C@@H](C)CC)C(=O)N1CCN(c2ccc3ncn(CC(=O)N[C@@H](CCCNC(=N)N)C(=O)N[C@@H](Cc4c[nH]cn4)C(=O)N[C@@H](Cc4ccc(O)cc4)C(=O)N[C@@H](CC(C)C)C(=O)N[C@@H](CC(N)=O)C(=O)N[C@@H](Cc4c[nH]c5ccccc45)C(=O)N[C@H](C(=O)N[C@H](C(=O)N[C@@H](CCCNC(=N)N)C(=O)N[C@@H](CCC(N)=O)C(=O)N(C)[C@@H](CCCNC(=N)N)C(=O)N[C@@H](Cc4ccc(O)cc4)C(N)=O)[C@@H](C)O)C(C)C)c(=O)c3c2)CC1` [Example 7], for which the EC50 in test [1] was > 5000 nM; in test [2] it was > 5000 nM; in test [3] it was 1130 nM; in test [4], 0.16 nM; in test [5], 0.044 nM.

With `CCCCCCCCCCCCCCCC(=O)NCCCCCC(=O)NCCCC[C@H](NC(=O)[C@@H](NC(=O)CCOCCOCCOCCOCCOCCOCCOCCOC)[C@@H](C)CC)C(=O)N1CCN(c2ccc3ncn(CC(=O)N[C@@H](CCCNC(=N)N)C(=O)N[C@@H](Cc4c[nH]cn4)C(=O)N[C@@H](Cc4ccc(O)cc4)C(=O)N[C@@H](CC(C)C)C(=O)N[C@@H](CC(N)=O)C(=O)N[C@@H](Cc4c[nH]c5ccccc45)C(=O)N[C@H](C(=O)N[C@H](C(=O)N[C@@H](CCCNC(=N)N)C(=O)N[C@@H](CCC(N)=O)C(=O)N(C)[C@@H](CCCNC(=N)N)C(=O)N[C@@H](Cc4ccc(O)cc4)C(N)=O)[C@@H](C)O)C(C)C)c(=O)c3c2)CC1` [Example 8], the EC50 was > 5000 nM in test [1]; > 5000 nM in test [2]; 1760 nM in test [3]; 0.17 nM in test [4]; 0.033 nM in test [5].

With `CCCCCCCCCCCCCCCC(=O)NCCCCCC(=O)NCCCC[C@H](NC(=O)[C@@H](NC(=O)CCOCCOCCOCCOCCOCCOCCOCCOCCOCCOCCOCCOC)[C@@H](C)CC)C(=O)N1CCN(c2ccc3ncn(CC(=O)N[C@@H](CCCNC(=N)N)C(=O)N[C@@H](Cc4c[nH]cn4)C(=O)N[C@@H](Cc4ccc(O)cc4)C(=O)N[C@@H](CC(C)C)C(=O)N[C@@H](CC(N)=O)C(=O)N[C@@H](Cc4c[nH]c5ccccc45)C(=O)N[C@H](C(=O)N[C@H](C(=O)N[C@@H](CCCNC(=N)N)C(=O)N[C@@H](CCC(N)=O)C(=O)N(C)[C@@H](CCCNC(=N)N)C(=O)N[C@@H](Cc4ccc(O)cc4)C(N)=O)[C@@H](C)O)C(C)C)c(=O)c3c2)CC1` [Example 9], the half-maximal effective concentration (EC50) in test [1] is > 5000 nM; in test [2] it was > 5000 nM; in test [3], 1030 nM; in test [4], 0.08 nM; in test [5], 0.025 nM.

With `CCCCCCCCCCCCCCCC(=O)NCCCCCC(=O)NCCCC[C@H](NC(=O)[C@@H](NC(=O)CCOCCOCCOCCOCCOCCOCCOCCOCCOCCOCCOCCOCCOCCOCCOCCOC)[C@@H](C)CC)C(=O)N1CCN(c2ccc3ncn(CC(=O)N[C@@H](CCCNC(=N)N)C(=O)N[C@@H](Cc4c[nH]cn4)C(=O)N[C@@H](Cc4ccc(O)cc4)C(=O)N[C@@H](CC(C)C)C(=O)N[C@@H](CC(N)=O)C(=O)N[C@@H](Cc4c[nH]c5ccccc45)C(=O)N[C@H](C(=O)N[C@H](C(=O)N[C@@H](CCCNC(=N)N)C(=O)N[C@@H](CCC(N)=O)C(=O)N(C)[C@@H](CCCNC(=N)N)C(=O)N[C@@H](Cc4ccc(O)cc4)C(N)=O)[C@@H](C)O)C(C)C)c(=O)c3c2)CC1` [Example 10], the EC50 is > 5000 nM in test [1]; > 5000 nM in test [2]; 816 nM in test [3]; 0.13 nM in test [4]; 0.04 nM in test [5].

Turning to `CCCCCCCCCCCCCCCCCCCC(=O)N[C@@H](CCC(=O)N[C@@H](CCC(=O)NCCCC[C@H](NC(=O)[C@@H](NC(=O)CCOCCOCCOCCOCCOCCOCCOCCOCCOCCOCCOCCOC)[C@@H](C)CC)C(=O)N1CCN(c2ccc3ncn(CC(=O)N[C@@H](CCCNC(=N)N)C(=O)N[C@@H](Cc4c[nH]cn4)C(=O)N[C@@H](Cc4ccc(O)cc4)C(=O)N[C@@H](CC(C)C)C(=O)N[C@@H](CC(N)=O)C(=O)N[C@@H](Cc4c[nH]c5ccccc45)C(=O)N[C@H](C(=O)N[C@H](C(=O)N[C@@H](CCCNC(=N)N)C(=O)N[C@@H](CCC(N)=O)C(=O)N(C)[C@@H](CCCNC(=N)N)C(=O)N[C@@H](Cc4ccc(O)cc4)C(N)=O)[C@@H](C)O)C(C)C)c(=O)c3c2)CC1)C(=O)O)C(=O)O` [Example 24], the “Y5R FLIPR agonist character (partial agonist mark)” value in test [3] (FLIPR) is “P.A”.
